Measured values reported in US20230295096A1, “PYRAZOLE CARBOXAMIDE COMPOUNDS FOR TREATMENT OF HBV” (ASSEMBLY BIOSCIENCES, INC., priority 2020, published 2023).
Like-named read-outs stand apart in the source and are kept apart here.

System: HBV
Assay: Viral load production from HepAD38 cells, qPCR of the HBV core sequence in supernatant
Format: cell-based
Conditions: HepAD38 cells, 5 days, HBV DNA in supernatant by qPCR
In short: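 EC50 and CC50 come from four-parameter logistic fits of supernatant HBV core DNA (TaqMan qPCR, DNA standards, compared with DMSO wells) and of CellTiter-Glo luminescence.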

[1] = Hepatitis B virus, HePAD38, 120 h, Table 1 ranges, read-out: Activity (viral load lowering EC50)
[2] = Table 1 ranges, read-out: Activity (viral load lowering EC50)

SMILES: Cn1nc(Br)c(C2(O)CC3CC(c4nn(C)c(N)c4C(=O)Nc4ccc(F)c(Cl)c4)CC3C2)n1 (centres unmarked) [Example 194]
- EC50 [1]: < 10 nM

SMILES: Cn1nc(C2CC3CC(O)(c4c[nH]nc4C(F)(F)F)CC3C2)c(C(=O)Nc2ccc(F)c(C#N)c2)c1N (centres unmarked) [Example 222]
- EC50 [1]: < 10 nM

SMILES: Cn1nc(C2CC3CC(O)(c4cnccn4)CC3C2)c(C(=O)Nc2ccc(F)c(Cl)c2)c1N (centres unmarked) [Example 191]
- EC50 [1]: < 10 nM

SMILES: Cn1nc(C2CC3CC(O)(C(F)F)CC3C2)c(C(=O)Nc2ccc(F)c(Cl)c2)c1N (centres unmarked) [Example 30, 5-Amino-N-(3-chloro-4-fluorophenyl)-3-(5-(difluoromethyl)-5-hydroxyoctahydropentalen-2-yl)-1-methyl-1H-pyrazole-4-carboxamide]
- EC50 [1]: 10 to 50 nM

SMILES: CC(C)n1nccc1C1(O)CC2CC(c3nn(C)c(N)c3C(=O)Nc3ccc(F)c(Cl)c3)CC2C1 (centres unmarked) [Example 200]
- EC50 [1]: < 10 nM

SMILES: CCn1nccc1C1(O)CC2CC(c3nn(C)c(N)c3C(=O)Nc3ccc(F)c(Cl)c3)CC2C1 (centres unmarked) [Example 196]
- EC50 [1]: < 10 nM

SMILES: Cn1nc(C2CC3CC(O)(c4ncc[nH]4)CC3C2)c(C(=O)Nc2ccc(F)c(Cl)c2)c1N (centres unmarked) [Example 147]
- EC50 [1]: 10 to 50 nM

SMILES: Cn1nc(C2CC3CC(CNC(=O)C4CCOCC4)CC3C2)c(C(=O)Nc2ccc(F)c(Cl)c2)c1N (centres unmarked) [Example 50, 5-Amino-N-(3-chloro-4-fluorophenyl)-1-methyl-3-(5-((tetrahydro-2H-pyran-4-carboxamido)methyl)octahydropentalen-2-yl)-1H-pyrazole-4-carboxamide]
- EC50 [1]: < 10 nM

SMILES: Cn1nc(C2CC3CN(C(=O)OCc4cccc(F)c4)CC3C2)c(C(=O)Nc2ccc(F)c(Cl)c2)c1N (centres unmarked) [Example 130, 3-fluorobenzyl 5-(5-amino-4-((3-chloro-4-fluorophenyl)carbamoyl)-1-methyl-1H-pyrazol-3-yl)hexahydrocyclopenta[c]pyrrole-2(1H)-carboxylate]
- EC50 [1]: 10 to 50 nM

SMILES: Cn1nc(C2CC3CC(O)(c4nc5cc(F)c(F)cc5n4C)CC3C2)c(C(=O)Nc2ccc(F)c(Cl)c2)c1N (centres unmarked) [Example 152]
- EC50 [1]: 10 to 50 nM

SMILES: Cn1nc(C2CC3CC(O)(c4ccncc4)CC3C2)c(C(=O)Nc2ccc(F)c(Cl)c2)c1N (centres unmarked) [Example 16, 5-Amino-N-(3-chloro-4-fluorophenyl)-3-(5-hydroxy-5-(pyridin-4-yl)octahydropentalen-2-yl)-1-methyl-1H-pyrazole-4-carboxamide]
- EC50 [1]: < 10 nM

SMILES: Cn1nc(C2CC3CC(N4CCC(C(N)=O)CC4)CC3C2)c(C(=O)Nc2ccc(F)c(Cl)c2)c1N (centres unmarked) [Example 187]
- EC50 [1]: 50 to 500 nM

SMILES: Cn1nc(C2CC3CC(CNC(=O)C(C)(C)O)CC3C2)c(C(=O)Nc2ccc(F)c(Cl)c2)c1N (single isomer, unassigned) [Example 39, 5-Amino-N-(3-chloro-4-fluorophenyl)-3-(5-((2-hydroxy-2-methylpropanamido)methyl)octahydropentalen-2-yl)-1-methyl-1H-pyrazole-4-carboxamide]
- EC50 [1]: < 10 nM

SMILES: Cn1nc(C2CC3CC(O)(c4c(Br)nnn4C)CC3C2)c(C(=O)Nc2ccc(F)c(Cl)c2)c1N (centres unmarked) [Example 24, 5-Amino-3-(5-(4-bromo-1-methyl-1H-1,2,3-triazol-5-yl)-5-hydroxyoctahydropentalen-2-yl)-N-(3-chloro-4-fluorophenyl)-1-methyl-1H-pyrazole-4-carboxamide]
- EC50 [1]: < 10 nM

SMILES: Cc1cc(C2(O)CC3CC(c4nn(C)c(N)c4C(=O)Nc4ccc(F)c(Cl)c4)CC3C2)on1 (centres unmarked) [Example 180]
- EC50 [1]: < 10 nM

SMILES: Cn1nc(C2CC3CC(CNC(=O)C4CCNC(=O)C4)CC3C2)c(C(=O)Nc2ccc(F)c(Cl)c2)c1N (centres unmarked) [Example 80, N-((5-(5-Amino-4-((3-chloro-4-fluorophenyl)carbamoyl)-1-methyl-1H-pyrazol-3-yl)octahydropentalen-2-yl)methyl)-2-oxopiperidine-4-carboxamide]
- EC50 [1]: 50 to 500 nM

SMILES: Cn1nc(C2CC3CC(O)(c4ncco4)CC3C2)c(C(=O)Nc2ccc(F)c(Cl)c2)c1N (centres unmarked) [Example 21, 5-Amino-N-(3-chloro-4-fluorophenyl)-3-(5-hydroxy-5-(oxazol-2-yl)octahydropentalen-2-yl)-1-methyl-1H-pyrazole-4-carboxamide]
- EC50 [1]: < 10 nM

SMILES: Cn1nc(C2CC3CC(O)(c4ccncc4F)CC3C2)c(C(=O)Nc2ccc(F)c(Cl)c2)c1N (centres unmarked) [Example 169]
- EC50 [1]: < 10 nM

SMILES: Cn1nc(C2CC3CC(CNC(=O)CCCN4CCCCC4)CC3C2)c(C(=O)Nc2ccc(F)c(Cl)c2)c1N (centres unmarked) [Example 71, 5-Amino-N-(3-chloro-4-fluorophenyl)-1-methyl-3-(5-((4-(piperidin-1-yl)butanamido)methyl)octahydropentalen-2-yl)-1H-pyrazole-4-carboxamide]
- EC50 [1]: 10 to 50 nM

SMILES: Cn1nc(C2CC3CC(O)(c4cc(Br)ncc4F)CC3C2)c(C(=O)Nc2ccc(F)c(Cl)c2)c1N (centres unmarked) [Example 166]
- EC50 [1]: 10 to 50 nM

SMILES: Cn1nc(C2CC3CC(CNC(=O)C4CCN(C(=O)OC(C)(C)C)CC4)CC3C2)c(C(=O)Nc2ccc(F)c(Cl)c2)c1N (centres unmarked) [Example 62, tert-Butyl 4-(((5-(5-amino-4-((3-chloro-4-fluorophenyl)carbamoyl)-1-methyl-1H-pyrazol-3-yl)octahydropentalen-2-yl)methyl)carbamoyl)piperidine-1-carboxylate]
- EC50 [1]: < 10 nM

SMILES: Cn1nc(C2CC3CC(CNC(=O)C4CCNCC4)CC3C2)c(C(=O)Nc2ccc(F)c(Cl)c2)c1N (centres unmarked) [Example 75, N-((5-(5-Amino-4-((3-chloro-4-fluorophenyl)carbamoyl)-1-methyl-1H-pyrazol-3-yl)octahydropentalen-2-yl)methyl)piperidine-4-carboxamide]
- EC50 [1]: 10 to 50 nM

SMILES: Cn1nc(C2CC3CC(O)(c4ccc(F)cn4)CC3C2)c(C(=O)Nc2ccc(F)c(Cl)c2)c1N (centres unmarked) [Example 168]
- EC50 [1]: < 10 nM

SMILES: Cn1nc(C2CC3CC(CNC(=O)C4CCCCC4)CC3C2)c(C(=O)Nc2ccc(F)c(Cl)c2)c1N (centres unmarked) [Example 76, 5-Amino-N-(3-chloro-4-fluorophenyl)-3-(5-(cyclohexanecarboxamidomethyl)octahydropentalen-2-yl)-1-methyl-1H-pyrazole-4-carboxamide]
- EC50 [1]: 10 to 50 nM

SMILES: Cn1nc(C2CC3CN(C(=O)NC4CC(F)(F)C4)CC3C2)c(C(=O)Nc2ccc(F)c(Cl)c2)c1N (centres unmarked) [Example 123, 5-(5-Amino-4-((3-chloro-4-fluorophenyl)carbamoyl)-1-methyl-1H-pyrazol-3-yl)-N-(3,3-difluorocyclobutyl)hexahydrocyclopenta[c]-pyrrole-2(1H)-carboxamide]
- EC50 [1]: 50 to 500 nM

SMILES: C#CC1(O)CC2CC(c3nn(C)c(N)c3C(=O)Nc3ccc(F)c(Cl)c3)CC2C1 (centres unmarked) [Example 22, 5-Amino-N-(3-chloro-4-fluorophenyl)-3-(5-ethynyl-5-hydroxyoctahydropentalen-2-yl)-1-methyl-1H-pyrazole-4-carboxamide]
- EC50 [1]: < 10 nM

SMILES: Cn1nc(C2CC3CN(C(=O)OC4COC4)CC3C2)c(C(=O)Nc2ccc(F)c(Cl)c2)c1N (centres unmarked) [Example 119, Oxetan-3-yl 5-(5-amino-4-((3-chloro-4-fluorophenyl)carbamoyl)-1-methyl-1H-pyrazol-3-yl)hexahydrocyclopenta[c]pyrrole-2(1H)-carboxylate]
- EC50 [1]: 10 to 50 nM

SMILES: Cn1ncc(C2(O)CC3CC(c4nn(C)c(N)c4C(=O)Nc4ccc(F)c(Cl)c4)CC3C2)n1 (centres unmarked) [Example 195]
- EC50 [1]: < 10 nM

SMILES: Cc1ccc(S(=O)(=O)C(F)(F)C2(O)CC3CC(c4nn(C)c(N)c4C(=O)Nc4ccc(F)c(Cl)c4)CC3C2)cc1 (centres unmarked) [Example 35, 5-Amino-N-(3-chloro-4-fluorophenyl)-3-(5-(difluoro(tosyl)methyl)-5-hydroxyoctahydropentalen-2-yl)-1-methyl-1H-pyrazole-4-carboxamide]
- EC50 [1]: 10 to 50 nM

SMILES: CC(n1cccn1)C1(O)CC2CC(c3nn(C)c(N)c3C(=O)Nc3ccc(F)c(Cl)c3)CC2C1 (centres unmarked) [Example 199]
- EC50 [1]: < 10 nM

SMILES: Cn1nc(C2CC3CC(CNC(=O)C4CCC(F)(F)CC4)CC3C2)c(C(=O)Nc2ccc(F)c(Cl)c2)c1N (centres unmarked) [Example 53, 5-Amino-N-(3-chloro-4-fluorophenyl)-3-(5-((4,4-difluorocyclohexane-1-carboxamido)methyl)octahydropentalen-2-yl)-1-methyl-1H-pyrazole-4-carboxamide]
- EC50 [1]: < 10 nM

SMILES: Cn1nc(C2CC3CC(O)(CNc4cc(N)ncn4)CC3C2)c(C(=O)Nc2ccc(F)c(Cl)c2)c1N (single isomer, unassigned) [Example 205B]
- EC50 [2]: 50 to 500 nM

SMILES: Cn1nc(C2CC3CN(C(=O)Nc4cccc(F)c4)CC3C2)c(C(=O)Nc2ccc(F)c(Cl)c2)c1N (centres unmarked) [Example 122, 5-(5-Amino-4-((3-chloro-4-fluorophenyl)carbamoyl)-1-methyl-1H-pyrazol-3-yl)-N-(3-fluorophenyl)hexahydrocyclopenta[c]pyrrole-2(1H)-carboxamide]
- EC50 [1]: 10 to 50 nM

SMILES: C=C(n1cccn1)C1(O)CC2CC(c3nn(C)c(N)c3C(=O)Nc3ccc(F)c(Cl)c3)CC2C1 (centres unmarked) [Example 198]
- EC50 [1]: < 10 nM

SMILES: Cn1nc(C2CC3CC(CNC(=O)CC(F)(F)F)CC3C2)c(C(=O)Nc2ccc(F)c(Cl)c2)c1N (centres unmarked) [Example 55, 5-Amino-N-(3-chloro-4-fluorophenyl)-1-methyl-3-(5-((3,3,3-trifluoropropanamido)methyl)octahydropentalen-2-yl)-1H-pyrazole-4-carboxamide]
- EC50 [1]: < 10 nM

SMILES: Cn1nc(C2CC3CC3C2)c(C(=O)Nc2ccc(F)c(Cl)c2)c1N (centres unmarked) [Example 139, 5-Amino-3-(bicyclo[3.1.0]hexan-3-yl)-N-(3-chloro-4-fluorophenyl)-1-methyl-1H-pyrazole-4-carboxamide]
- EC50 (Hepatitis B virus, HePAD38, 120 h, Table 2 ranges, read-out: VL HepAD38 EC50 range): < 100 nM

SMILES: Cn1nc(C(F)(F)F)cc1NCC1(O)CC2CC(c3nn(C)c(N)c3C(=O)Nc3ccc(F)c(Cl)c3)CC2C1 (single isomer, unassigned) [Example 203B]
- EC50 [2]: 10 to 50 nM

SMILES: C[C@@H](NC(=O)C1CC2CC(c3nn(C)c(N)c3C(=O)Nc3ccc(F)c(Cl)c3)CC2C1)C(F)(F)F (single isomer, unassigned) [Example 102]
- EC50 [2]: 10 to 50 nM
